These results are taken from patent publication US9783536B2, “Nitrogen-containing heterocyclic compound or salt thereof” (FUJIFILM Corporation, priority 2013, dated 2017).

For one experiment, the target named is T1, human PI3Kα protein (Homo sapiens, UniProt P42336).
T1 construct: purchased Carna Biosciences, Inc; host or cells: baculovirus expression system
As to the kind of experiment: PI3Kα enzyme assay (ADP-Glo). The format is biochemical. The note with it: read-out: PI3Kα enzyme inhibitory activity. A digest of the protocol: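 Biotinylated human PI3Kα (baculovirus-expressed, 4.5 nmol/L) pre-incubated 15 min with compound in Tris-HCl pH 7.5, MgCl2, BSA; reaction 60 min at 25° C with 50 μmol/L PIP2 and 100 μmol/L ATP final. ADP quantified by ADP-Glo luminescence; IC50 calculated.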
(ADP-Glo turns the ADP formed in a reaction into a luminescent signal.)

For experiment [1], the target named is T2, GST fusion human ERK2 protein (Homo sapiens, UniProt P28482).
T2 construct: purchased Carna Biosciences, Inc; host or cells: E. coli expression system
Put plainly: ERK2 enzyme assay (2). In kind it is biochemical. The note with it: ERK2 enzyme assay (2); read-out: ERK2 enzyme inhibitory activity (2). A digest of the protocol:
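GST-tagged human ERK2 expressed in E. coli (1.25 nmol/L) was preincubated with compound for 15 min at room temperature in pH 7.5 Hepes buffer with MgCl2, DTT and Brij35. Reaction with FL-Peptide 8 (final 4.25 μmol/L) and ATP (final 1 mmol/L) ran 120 min at 25 °C; EDTA stopped it, and phosphorylated peptide was quantified by mobility-shift separation to derive IC50.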

Where a name gives a salt, the structure may show the parent alone.

T2 sequence (P28482 whole entry, the tested form may be a part): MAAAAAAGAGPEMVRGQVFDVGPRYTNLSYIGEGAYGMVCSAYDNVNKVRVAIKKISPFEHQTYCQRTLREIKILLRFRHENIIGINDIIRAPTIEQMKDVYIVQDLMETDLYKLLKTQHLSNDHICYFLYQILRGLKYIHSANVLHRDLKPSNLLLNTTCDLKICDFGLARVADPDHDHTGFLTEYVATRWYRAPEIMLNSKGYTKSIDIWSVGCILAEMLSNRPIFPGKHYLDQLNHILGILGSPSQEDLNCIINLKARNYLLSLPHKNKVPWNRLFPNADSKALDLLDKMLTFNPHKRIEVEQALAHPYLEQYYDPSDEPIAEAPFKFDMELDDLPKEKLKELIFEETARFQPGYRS
T1 sequence (P42336 whole entry): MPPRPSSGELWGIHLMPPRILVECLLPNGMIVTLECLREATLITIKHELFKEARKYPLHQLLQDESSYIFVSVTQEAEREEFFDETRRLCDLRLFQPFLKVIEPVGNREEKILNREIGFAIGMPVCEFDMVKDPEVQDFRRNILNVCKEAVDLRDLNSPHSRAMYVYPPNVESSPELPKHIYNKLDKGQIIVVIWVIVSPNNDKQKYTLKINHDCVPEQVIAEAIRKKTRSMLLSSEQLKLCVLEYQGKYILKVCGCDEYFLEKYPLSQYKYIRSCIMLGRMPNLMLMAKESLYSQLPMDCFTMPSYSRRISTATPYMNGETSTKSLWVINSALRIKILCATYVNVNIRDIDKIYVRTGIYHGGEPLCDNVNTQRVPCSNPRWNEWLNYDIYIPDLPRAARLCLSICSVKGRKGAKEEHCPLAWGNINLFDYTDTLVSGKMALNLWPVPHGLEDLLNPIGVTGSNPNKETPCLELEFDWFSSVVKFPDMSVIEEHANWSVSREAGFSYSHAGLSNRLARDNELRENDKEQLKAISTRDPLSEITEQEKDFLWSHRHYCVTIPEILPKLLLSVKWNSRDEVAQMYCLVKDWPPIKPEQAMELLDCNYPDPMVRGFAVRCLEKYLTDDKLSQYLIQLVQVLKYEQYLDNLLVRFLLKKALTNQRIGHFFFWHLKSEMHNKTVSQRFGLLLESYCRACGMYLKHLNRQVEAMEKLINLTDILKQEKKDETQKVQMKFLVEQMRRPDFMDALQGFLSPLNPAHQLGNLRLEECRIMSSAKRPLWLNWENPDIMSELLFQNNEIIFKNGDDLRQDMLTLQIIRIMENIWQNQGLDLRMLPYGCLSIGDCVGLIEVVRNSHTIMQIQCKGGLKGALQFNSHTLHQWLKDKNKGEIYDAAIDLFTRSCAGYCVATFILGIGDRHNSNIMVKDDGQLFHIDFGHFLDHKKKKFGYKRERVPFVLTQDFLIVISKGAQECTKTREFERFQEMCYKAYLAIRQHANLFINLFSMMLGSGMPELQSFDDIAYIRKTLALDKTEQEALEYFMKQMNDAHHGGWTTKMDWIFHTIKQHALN
T1 sequence (P27986 whole entry partner): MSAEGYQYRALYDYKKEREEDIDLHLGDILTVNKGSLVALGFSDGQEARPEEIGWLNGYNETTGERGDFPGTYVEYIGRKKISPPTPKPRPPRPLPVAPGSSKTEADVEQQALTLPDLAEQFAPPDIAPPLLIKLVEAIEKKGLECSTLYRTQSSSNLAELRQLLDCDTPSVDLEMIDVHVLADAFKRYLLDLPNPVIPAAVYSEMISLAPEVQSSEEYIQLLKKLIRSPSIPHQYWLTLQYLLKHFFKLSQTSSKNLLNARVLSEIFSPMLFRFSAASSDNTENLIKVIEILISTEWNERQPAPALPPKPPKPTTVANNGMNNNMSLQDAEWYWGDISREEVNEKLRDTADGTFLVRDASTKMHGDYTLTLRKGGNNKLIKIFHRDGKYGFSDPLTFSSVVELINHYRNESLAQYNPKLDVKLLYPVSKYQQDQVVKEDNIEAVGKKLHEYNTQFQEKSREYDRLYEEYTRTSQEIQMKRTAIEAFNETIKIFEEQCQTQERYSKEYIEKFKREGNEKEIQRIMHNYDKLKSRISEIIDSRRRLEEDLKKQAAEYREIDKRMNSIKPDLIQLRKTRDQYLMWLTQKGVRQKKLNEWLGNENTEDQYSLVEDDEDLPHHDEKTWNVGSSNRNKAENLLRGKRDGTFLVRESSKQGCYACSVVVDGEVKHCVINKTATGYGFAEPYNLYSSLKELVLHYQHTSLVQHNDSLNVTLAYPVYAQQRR

Regarding `CCOC1CN(CCCn2cc(-c3cnc4ccc(Nc5cc(C(C)C)cnn5)nc4c3)cn2)C1` [Example 0676, N-(5-isopropylpyridazin-3-yl)-7-(1-(3-(3-ethoxyazetidin-1-yl)propyl)-1H-pyrazol-4-yl)-1,5-naphthyridine-2-amine], the IC50 (on human PI3Kα protein; in experiment [1]) was under 1000 nM in each case.

For the compound `CC(C)c1cnnc(Nc2ccc3ncc(-c4cnn(CCCN5CC(OCc6ccccc6)C5)c4)cc3n2)c1` [Example 0680], the IC50 (on human PI3Kα protein; in experiment [1]) was under 1000 nM in each case.

On to `CC(C)c1cnnc(Nc2ccc3ncc(-c4cnn(CCCN5CC(OC(F)F)C5)c4)cc3n2)c1` [Example 0681], for which the IC50 (on human PI3Kα protein; in experiment [1]) was under 1000 nM each time.

`CNc1nn(C)cc1-c1cnc2ccc(Nc3cc(C(C)C)cnn3)nc2c1` [Example 0683, N-(5-isopropylpyridazin-3-yl)-7-(1-methyl-3-(methylamino)-1H-pyrazol-4-yl)-1,5-naphthyridine-2-amine hydrochloride]: the IC50 (at human PI3Kα protein; in experiment [1]) was under 1000 nM throughout.

Take `CCC1CN(CCCn2cc(-c3cnc4ccc(Nc5cc(C(C)C)cnn5)nc4c3)cn2)CCO1` (stereo not drawn) [Example 0684]: the IC50 (on human PI3Kα protein; in experiment [1]) was under 1000 nM each time.

Turning to `CC(C)c1cnnc(Nc2ccc3ncc(-c4cnn(CCCN5CC(C(=O)N6CCOCC6)C5)c4)cc3n2)c1` [Example 0689], the IC50 (at human PI3Kα protein; in experiment [1]) was under 1000 nM each time.

Turning to `CC(=O)Nc1nn(C)cc1-c1cnc2ccc(Nc3cc(C(C)C)cnn3)nc2c1` [Example 0690, N-(4-(6-((5-isopropylpyridazin-3-yl)amino)-1,5-naphthyridin-3-yl)-1-methyl-1H-pyrazol-3-yl)acetamide], the IC50 (on human PI3Kα protein; in experiment [1]) was under 1000 nM each time.

For `CC(C)c1cnnc(Nc2ccc3ncc(-c4cnn(CCCN5CC(F)(F)C5)c4)cc3n2)c1` [Example 0692], the IC50 (on human PI3Kα protein; in experiment [1]) was under 1000 nM in each case.

In the case of `CC(C)c1cnnc(Nc2ccc3ncc(-c4cnn(CCCN5CC(NC(=O)OC(C)(C)C)C5)c4)cc3n2)c1` [Example 0693], the IC50 (at human PI3Kα protein; in experiment [1]) was under 1000 nM in each case.

For the compound `CC(C)c1cnnc(Nc2ccc3ncc(-c4cnn(CCCN5CC(NC(=O)C(F)(F)F)C5)c4)cc3n2)c1` [Example 0696], the IC50 (at human PI3Kα protein; in experiment [1]) was under 1000 nM each time.

`Cc1cn(-c2cnc3ccc(Nc4cc(C(C)C)cnn4)nc3c2)c(C)n1` [Example 0698, 7-(2,4-dimethyl-1H-imidazol-1-yl)-N-(5-isopropylpyridazin-3-yl)-1,5-naphthyridine-2-amine]: the IC50 at human PI3Kα protein is 1000 to 10000 nM; in experiment [1] it was under 1000 nM.

Consider `CC(C)c1cnnc(Nc2ccc3ncc(-c4cnn(CCCN5CC(OCC(F)(F)F)C5)c4)cc3n2)c1` [Example 0699], for which the IC50 (at human PI3Kα protein; in experiment [1]) was under 1000 nM each time.

As to `CC(C)c1cnnc(Nc2ccc3ncc(-c4cnn(CCCN(C)CC(F)(F)F)c4)cc3n2)c1` [Example 0700, N-(5-isopropylpyridazin-3-yl)-7-(1-(3-(methyl (2,2,2-trifluoroethyl)amino)propyl)-1H-pyrazol-4-yl)-1,5-naphthyridine-2-amine], the IC50 (on human PI3Kα protein; in experiment [1]) was under 1000 nM throughout.

`Cc1ccc(S(=O)(=O)NC2CN(CCCn3cc(-c4cnc5ccc(Nc6cc(C(C)C)cnn6)nc5c4)cn3)C2)cc1` [Example 0701]: the IC50 (on human PI3Kα protein; in experiment [1]) was under 1000 nM in each case.

Take `CC(C)c1cnnc(Nc2ccc3ncc(-c4cnn(CCCN5CC(O)(CCO)C5)c4)cc3n2)c1` [Example 0702]: the IC50 (on human PI3Kα protein; in experiment [1]) was under 1000 nM in each case.

Regarding `CC(C)c1cnnc(Nc2ccc3ncc(-c4cnn(Cc5ccccc5[N+](=O)[O-])c4)cc3n2)c1` [Example 0703, N-(5-isopropylpyridazin-3-yl)-7-(1-(2-nitrobenzyl)-1H-pyrazol-4-yl)-1,5-naphthyridine-2-amine], the IC50 (on human PI3Kα protein; in experiment [1]) was under 1000 nM throughout.

As to `CC(C)c1cnnc(Nc2ccc3ncc(-c4cnn(CCCN5CC6(CCO6)C5)c4)cc3n2)c1` [Example 0704, 7-(1-(3-(1-Oxa-6-azaspiro[3.3]heptan-6-yl)propyl)-1H-pyrazol-4-yl)-N-(5-isopropylpyridazin-3-yl)-1,5-naphthyridine-2-amine], the IC50 (on human PI3Kα protein; in experiment [1]) was under 1000 nM in each case.

In the case of `CC(C)c1cnnc(Nc2ccc3ncc(-c4cnn(Cc5ccccc5N)c4)cc3n2)c1` [Example 0705, 7-(1-(2-aminobenzyl)-1H-pyrazol-4-yl)-N-(5-isopropylpyridazin-3-yl)-1,5-naphthyridine-2-amine], the IC50 (at human PI3Kα protein; in experiment [1]) was under 1000 nM each time.

As to `CCCOC1CN(CCCn2cc(-c3cnc4ccc(Nc5cc(C(C)C)cnn5)nc4c3)cn2)C1` [Example 0706], the IC50 (on human PI3Kα protein; in experiment [1]) was under 1000 nM throughout.

On to `CCCCOC1CN(CCCn2cc(-c3cnc4ccc(Nc5cc(C(C)C)cnn5)nc4c3)cn2)C1` [Example 0707], for which the IC50 (at human PI3Kα protein; in experiment [1]) was under 1000 nM throughout.

In the case of `CC(C)COC1CN(CCCn2cc(-c3cnc4ccc(Nc5cc(C(C)C)cnn5)nc4c3)cn2)C1` [Example 0708], the IC50 (on human PI3Kα protein; in experiment [1]) was under 1000 nM in each case.

On to `CC(C)c1cnnc(Nc2ccc3ncc(-c4cnn(CCCN5CC(OCC6CC6)C5)c4)cc3n2)c1` [Example 0709], for which the IC50 (on human PI3Kα protein; in experiment [1]) was under 1000 nM each time.

On to `CC(C)OC1CN(CCCn2cc(-c3cnc4ccc(Nc5cc(C(C)C)cnn5)nc4c3)cn2)C1` [Example 0710, 7-(1-(3-(3-Isopropoxyazetidin-1-yl)propyl)-1H-pyrazol-4-yl)-N-(5-isopropylpyridazin-3-yl)-1,5-naphthyridine-2-amine], for which the IC50 (on human PI3Kα protein; in experiment [1]) was under 1000 nM throughout.

Regarding `CC(C)c1cnnc(Nc2ccc3ncc(-c4cnn(Cc5cccc([N+](=O)[O-])c5)c4)cc3n2)c1` [Example 0711], the IC50 (on human PI3Kα protein; in experiment [1]) was under 1000 nM throughout.

In the case of `CC(C)c1cnnc(Nc2ccc3ncc(-c4cnn(CCCN5CC(OCCF)C5)c4)cc3n2)c1` [Example 0713, 7-(1-(3-(3-(2-Fluoroethoxy)azetidin-1-yl)propyl)-1H-pyrazol-4-yl)-N-(5-isopropylpyridazin-3-yl)-1,5-naphthyridine-2-amine], the IC50 (at human PI3Kα protein; in experiment [1]) was under 1000 nM each time.

Regarding `CC(C)c1cnnc(Nc2ccc3ncc(-c4cnn(CCCN5CC(OCC(F)F)C5)c4)cc3n2)c1` [Example 0714], the IC50 (on human PI3Kα protein; in experiment [1]) was under 1000 nM throughout.

On to `CC(C)c1cnnc(Nc2ccc3ncc(-c4cnn(CCCN5CC(Oc6ccccc6)C5)c4)cc3n2)c1` [Example 0715, N-(5-isopropylpyridazin-3-yl)-7-(1-(3-(3-phenoxyazetidin-1-yl)propyl)-1H-pyrazol-4-yl)-1,5-naphthyridine-2-amine], for which the IC50 (on human PI3Kα protein; in experiment [1]) was under 1000 nM in each case.

With `CC(C)c1cnnc(Nc2ccc3ncc(-c4cnn(Cc5ccc([N+](=O)[O-])cc5)c4)cc3n2)c1` [Example 0716], the IC50 (at human PI3Kα protein; in experiment [1]) was under 1000 nM throughout.

For the compound `CC(C)c1cnnc(Nc2ccc3ncc(-c4cnn(Cc5ccc(N)cc5)c4)cc3n2)c1` [Example 0717, 7-(1-(4-Aminobenzyl)-1H-pyrazol-4-yl)-N-(5-isopropylpyridazin-3-yl)-1,5-naphthyridine-2-amine], the IC50 (on human PI3Kα protein; in experiment [1]) was under 1000 nM in each case.

Take `COCCOC1CN(CCCn2cc(-c3cnc4ccc(Nc5cc(C(C)C)cnn5)nc4c3)cn2)C1` [Example 0718, N-(5-isopropylpyridazin-3-yl)-7-(1-(3-(3-(2-methoxyethoxy)azetidin-1-yl)propyl)-1H-pyrazol-4-yl)-1,5-naphthyridine-2-amine]: the IC50 (at human PI3Kα protein; in experiment [1]) was under 1000 nM each time.

On to `Cc1n[nH]cc1-c1cnc2ccc(Nc3cc(C(C)C)cnn3)nc2c1` [Example 0719, N-(5-isopropylpyridazin-3-yl)-7-(3-methyl-1H-pyrazol-4-yl)-1,5-naphthyridine-2-amine], for which the IC50 (on human PI3Kα protein; in experiment [1]) was under 1000 nM each time.

Regarding `Cc1nn(C)nc1-c1cnc2ccc(Nc3cc(C(C)C)cnn3)nc2c1` [Example 0720, 7-(2,5-Dimethyl-2H-1,2,3-triazol-4-yl)-N-(5-isopropylpyridazin-3-yl)-1,5-naphthyridine-2-amine], the IC50 (on human PI3Kα protein; in experiment [1]) was under 1000 nM each time.

In the case of `CC(C)c1cnnc(Nc2ccc3ncc(-c4cnn(CCCN5CC(N(C)S(C)(=O)=O)C5)c4)cc3n2)c1` [Example 0721, N-(1-(3-(4-(6-((5-isopropylpyridazin-3-yl)amino)-1,5-naphthyridin-3-yl)-1H-pyrazol-1-yl)propyl)azetidin-3-yl)-N-methylmethane sulfonamide], the IC50 (at human PI3Kα protein; in experiment [1]) was under 1000 nM throughout.

Take `CC(C)c1cnnc(Nc2ccc3ncc(-c4cnn(Cc5cncnc5)c4)cc3n2)c1` [Example 0722]: the IC50 (at human PI3Kα protein; in experiment [1]) was under 1000 nM in each case.

For the compound `CC(C)c1cnnc(Nc2ccc3ncc(-c4cnn(/C=C(\F)CN5CCCC5)c4)cc3n2)c1` [Example 0726, (Z)-7-(1-(2-fluoro-3-(pyrrolidin-1-yl)-1-propen-1-yl)-1H-pyrazol-4-yl)-N-(5-isopropylpyridazin-3-yl)-1,5-naphthyridine-2-amine], the IC50 (at human PI3Kα protein; in experiment [1]) was under 1000 nM each time.

Turning to `CC(C)c1cnnc(Nc2ccc3ncc(-c4cnn(CC(F)CN5CCCC5)c4)cc3n2)c1` (stereo not drawn) [Example 0727], the IC50 (at human PI3Kα protein; in experiment [1]) was under 1000 nM each time.
